Results: patent US20040014797A1, “Pharmaceutical composition comprising metformin and a 5-phenoxyalkyl-2,4-thiazolidinedione-type derivative” (priority 2000, published 2004)

Tested on: nOSTZ rat
Test: Antidiabetic effect of the metformin and CRE16336 combination on the nOSTZ rat (glycaemia, insulinaemia, lacticaemia after 4 days of oral treatment)
Type: in vivo
Conditions: for Glucose / Insulin / Lactate: 4 days of oral treatment, blood from the tail 2 h after last administration, metformin 25 mg/kg and/or CRE16336 12.5 mg/kg; for Effect on the hyperglycaemia in the nOSTZ rats (in words): 4 days oral, metformin 25 mg/kg, CRE16336 12.5 mg/kg, alone or combined
Procedure: The antidiabetic effect of the metformin and CRE16336 combination was studied on the nOSTZ rat, an experimental model of non-insulin-dependent diabetes. This model is produced by intravenous injection of Streptozotocin (STZ) 100 mg/kg, on the day of birth. 38 male nOSTZ rats were used after selection based on the hyperglycaemia value after fasting for 2 h in order to homogenize the groups. […] a group treated with metformin at 25 mg/kg a group treated with CRE16336 at 12.5 mg/kg a group treated with metformin 25 mg/kg and CRE16336 12.5 mg/kg 5 male Wistar rats were incorporated into this study in order to evaluate the degree of hyperglycaemia in the diabetic animals. The products were administered orally in the morning between 8 am and 9 am, for 4 days.

Lactate	SMILES	Glucose	Insulin	Effect on the hyperglycaemia in the nOSTZ rats (in words)
13.2 ± 0.7 mg/dL	N#Cc1ccc(OCCC2SC(=O)NC2=O)cc1 (centres unmarked) [CRE16336, 5-[2-(4-cyanophenoxy)ethyl]thiazolidine-2,4-dione]	156 ± 6 mg/dL	45.2 ± 5.5 μU/ml	does not modify the hyperglycaemia
15.4 ± 1.4 mg/dL	CN(C)C(=N)NC(=N)N [Metformin, 1,1-dimethylbiguanide]	160 ± 5 mg/dL	34.1 ± 3.7 μU/ml	does not modify the hyperglycaemia
